The assay deals with interaction between p53 and MDM2 proteins (recombinant GST-tagged MDM2 / biotinylated p53-peptide) (Homo sapiens, UniProt Q00987). Description: HTRF assay of inhibition of the p53-MDM2 interaction (In Vitro Activity Assay). The class given is binding. The protocol: The ability of the compounds to inhibit the interaction between p53 and MDM2 proteins was measured by an HTRF (homogeneous time-resolved fluorescence) assay in which recombinant GST-tagged MDM2 binds to a peptide that resembles the MDM2-interacting region of p53 (Lane et al.). Binding of GST-MDM2 protein and p53-peptide (biotinylated on its N-terminal end) is registered by the FRET (fluorescence resonance energy transfer) between Europium (Eu)-labeled anti-GST antibody and streptavidin-conjugated Allophycocyanin (APC). Test is performed in black flat-bottom 384-well plates (Costar) in a total volume of 40 uL containing: 90 nM biotinylate peptide, 160 ng/ml GST-MDM2, 20 nM streptavidin-APC (PerkinElmerWallac), 2 nM Eu-labeled anti-GST-antibody (PerkinElmerWallac), 0.2% bovine serum albumin (BSA), 1 mM dithiothreitol (DTT) and 20 mM […] (TBS) buffer as follows: Add 10 uL of GST-MDM2 (640 ng/ml working solution) in reaction buffer to each well. Add 10 uL dilution compounds (1:5 dilution in reaction buffer) to each well, mix by shaking, Add 20 uL biotinylated p53 peptide (180 nM working solution) in reaction buffer to each well and mix on shaker. Incubate at 37° C. for 1 h. Add 20 uL streptavidin-APC and Eu-anti-GST antibody mixture (6 nM Eu-anti-GST and 60 nM streptavidin-APC working solution) in TBS buffer with 0.2% BSA, shake at room temperature for 30 minutes and read using a TRF-capable plate reader at 665 and 615 nm (Victor 5, Perkin ElmerWallac). If not specified, the reagents were purchased from Sigma Chemical Co.
Background: TR-FRET usually uses a lanthanide donor and a delayed reading to cut background.

Where a name gives a salt, the structure may show the parent alone.

Chain of interaction between p53 and MDM2 proteins (recombinant GST-tagged MDM2 / biotinylated p53-peptide) (Q00987 whole entry): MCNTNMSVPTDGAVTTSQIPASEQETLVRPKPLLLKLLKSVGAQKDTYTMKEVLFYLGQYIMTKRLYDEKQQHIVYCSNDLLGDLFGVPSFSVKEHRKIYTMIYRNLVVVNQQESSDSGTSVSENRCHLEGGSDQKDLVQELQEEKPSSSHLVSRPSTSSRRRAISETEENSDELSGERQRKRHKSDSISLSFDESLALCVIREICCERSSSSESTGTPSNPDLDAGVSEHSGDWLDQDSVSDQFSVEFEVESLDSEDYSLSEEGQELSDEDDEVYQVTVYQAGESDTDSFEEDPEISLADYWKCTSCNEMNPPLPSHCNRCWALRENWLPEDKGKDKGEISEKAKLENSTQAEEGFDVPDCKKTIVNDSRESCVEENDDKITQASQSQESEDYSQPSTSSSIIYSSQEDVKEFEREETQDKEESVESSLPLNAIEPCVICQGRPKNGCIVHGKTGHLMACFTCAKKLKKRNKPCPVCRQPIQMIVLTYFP

With `CCOc1cc(C(C)(C)C)ccc1C1=N[C@@H](c2ccc(F)cc2)[C@@H](c2ccc(F)cc2)N1C(=O)N1CCN(CCS(C)(=O)=O)CC1` [Example 26, [(4S,5R)-2-(4-tert-Butyl-2-ethoxy-phenyl)-4,5-bis-(4-fluoro-phenyl)-4,5-dihydro-imidazol-1-yl]-[4-(2-methanesulfonyl-ethyl)-piperazin-1-yl]-methanone hydrochloride], the IC50 is 60 nM.

`CCOc1cc(C(C)(C)C)ccc1C1=N[C@@H](c2ccc(Cl)cc2)[C@@H](c2ccc(Cl)cc2)N1C(=O)N1CCC(N2CCCC2)CC1` [Example 74, [(4S,5R)-2-(4-tert-Butyl-2-ethoxy-phenyl)-4,5-bis-(4-chloro-phenyl)-4,5-dihydro-imidazol-1-yl]-(4-pyrrolidin-1-yl-piperidin-1-yl)-methanone hydrochloride]: the IC50 is 24 nM.

On to `CCOc1cc(C(C)(C)C)ccc1C1=N[C@@H](c2ccc(F)cc2)[C@@H](c2ccc(F)cc2)N1C(=O)N1CCNC(=O)C1` [Example 27, 4-[(4S,5R)-2-(4-tert-Butyl-2-ethoxy-phenyl)-4,5-bis-(4-fluoro-phenyl)-4,5-dihydro-imidazole-1-carbonyl]-piperazin-2-one hydrochloride], for which the IC50 was 3100 nM.

As for `C#Cc1ccc([C@@H]2[C@H](c3ccc(C#C)cc3)N=C(c3ccc(C(C)(C)C)cc3OCC)N2C(=O)N2CCN(CCS(C)(=O)=O)CC2)cc1` [Example 35, [(4S,5R)-2-(4-tert-Butyl-2-ethoxy-phenyl)-4,5-bis-(4-ethynyl-phenyl)-4,5-dihydro-imidazol-1-yl]-[4-(2-methanesulfonyl-ethyl)-piperazin-1-yl]-methanone hydrochloride], the IC50 amounted to 11 nM.

For orientation: IC50 means the concentration that gives 50% inhibition.
